We go through two compounds from article PMC3685175 (Journal of medicinal chemistry, 2013).

Each structure is given as a SMILES string.

What all share (assay type): biochemical
The target of data set [1] is T1, P450 1A1 (Homo sapiens, UniProt P04798).
T1 sequence (P04798 1-512): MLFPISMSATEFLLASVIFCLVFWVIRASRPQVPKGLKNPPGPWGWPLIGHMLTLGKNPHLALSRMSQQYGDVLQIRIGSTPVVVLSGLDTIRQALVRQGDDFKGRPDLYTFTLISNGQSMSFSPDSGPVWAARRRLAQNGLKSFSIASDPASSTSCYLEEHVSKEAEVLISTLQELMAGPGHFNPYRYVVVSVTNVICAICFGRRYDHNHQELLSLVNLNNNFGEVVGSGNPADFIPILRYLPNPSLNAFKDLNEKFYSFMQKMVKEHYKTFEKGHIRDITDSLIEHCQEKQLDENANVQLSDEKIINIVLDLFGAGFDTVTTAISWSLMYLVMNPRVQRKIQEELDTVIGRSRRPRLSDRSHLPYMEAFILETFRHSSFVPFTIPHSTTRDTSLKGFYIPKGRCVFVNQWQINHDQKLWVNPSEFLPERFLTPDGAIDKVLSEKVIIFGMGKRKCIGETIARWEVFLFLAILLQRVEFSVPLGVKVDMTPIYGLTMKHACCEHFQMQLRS

Data set [2] has as its target T2, P450 1A2 (Homo sapiens, UniProt P05177).
T2 sequence (P05177 1-516): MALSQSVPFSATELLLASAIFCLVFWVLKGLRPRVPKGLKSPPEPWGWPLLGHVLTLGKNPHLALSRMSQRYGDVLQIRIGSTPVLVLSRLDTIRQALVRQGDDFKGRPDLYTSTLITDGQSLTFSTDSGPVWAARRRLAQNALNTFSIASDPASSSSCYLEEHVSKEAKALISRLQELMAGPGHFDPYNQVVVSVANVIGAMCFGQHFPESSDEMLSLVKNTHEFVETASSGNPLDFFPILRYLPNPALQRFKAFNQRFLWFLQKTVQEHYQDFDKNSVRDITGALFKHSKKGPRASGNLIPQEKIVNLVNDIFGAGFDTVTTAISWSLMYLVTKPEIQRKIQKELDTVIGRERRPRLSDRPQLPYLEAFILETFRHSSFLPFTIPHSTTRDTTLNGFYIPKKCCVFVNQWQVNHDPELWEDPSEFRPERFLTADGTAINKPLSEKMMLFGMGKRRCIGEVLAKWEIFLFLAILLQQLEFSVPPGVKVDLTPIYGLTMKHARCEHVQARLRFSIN

Data set [3] concerns the target T3, P450 1B1 (Homo sapiens, UniProt Q16678).
T3 sequence (Q16678 1-543): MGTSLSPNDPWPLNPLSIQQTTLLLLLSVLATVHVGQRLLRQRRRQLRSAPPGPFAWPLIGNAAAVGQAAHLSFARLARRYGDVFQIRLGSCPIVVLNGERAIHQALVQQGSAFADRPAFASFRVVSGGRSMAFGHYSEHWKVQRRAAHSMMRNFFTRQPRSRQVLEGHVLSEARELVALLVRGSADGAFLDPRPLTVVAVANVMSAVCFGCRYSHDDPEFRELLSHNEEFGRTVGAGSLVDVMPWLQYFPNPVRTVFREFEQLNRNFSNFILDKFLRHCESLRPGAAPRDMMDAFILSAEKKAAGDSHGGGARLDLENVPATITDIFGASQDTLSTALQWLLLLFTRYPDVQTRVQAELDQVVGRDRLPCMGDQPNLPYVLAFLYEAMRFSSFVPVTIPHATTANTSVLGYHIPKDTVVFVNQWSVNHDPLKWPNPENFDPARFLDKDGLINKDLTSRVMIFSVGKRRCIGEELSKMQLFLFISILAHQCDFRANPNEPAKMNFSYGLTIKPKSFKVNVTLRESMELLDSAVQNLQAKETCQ
The note with it: from IC50 values.

Setting [4] is: Kitz-Wilson plot, mechanism-based inactivation.

For `C#CCOc1cccc(-c2cc(=O)c3c(O)cccc3o2)c1` [5H3′FPE, 5-Hydroxy-2-(3-(propargyloxy)phenyl)-4H-chromen-4-one], in data set [1] (setting [4]), the “KI, P450 1A1” value was determined as 0.13 µM. In addition, the “mechanism of inhibition of P450 1A1” value in data set [1] (in words) was “mechanism-based inhibitor”. In data set [2] (setting [4]), the “KI, P450 1A2” value was found to be 0.071 µM. Also, the “mechanism of inhibition of P450 1A2” value in data set [2] (in words) is on record as “mechanism-based inhibitor”.

As for `C#CCOc1ccc(-c2cc(=O)c3c(O)cccc3o2)cc1` [5H4′FPE, 5-Hydroxy-2-(4-(propargyloxy)phenyl)-4H-chromen-4-one], in data set [3], the “selectivity for P450 1B1 over P450 1A1” value came out at 120 times and the “selectivity for P450 1B1 over P450 1A2” value was “more than 250 times”. Moreover, the “effect on P450 1A1” value in data set [1] (0.1 μM inhibitor, in words) is given as “without having any significant effect”. The “effect on P450 1A2” value in data set [2] (0.1 μM inhibitor, in words) is “without having any significant effect”. In data set [2] (in words (conclusion)), the “inhibition of P450 1A2” value was “no inhibition”.
